# Target: T1, wildtype HIV-1 protease (Human immunodeficiency virus type 1 group M subtype B, UniProt P04585)
# T1 construct: preincubated with the HIV-1 protease (wild type) enzyme in assay buffer; made in house; host or cells: Escherichia coli
# Assay: Inhibition of microbial expressed HIV protease (Pepcleav)
# Assay type: biochemical
# Conditions: wild type HIV-1 protease expressed in E. coli, 20 pM enzyme, 400 micromolar peptide substrate, pH 5.5, LC-MS readout; mean of at least two independent experiments
# Protocol: Assay for Inhibition of Microbial Expressed HIV Protease (“Pepcleav”)
# Studies of the inhibition of the wildtype HIV-1 protease (which was expressed in Escherichia coli) were carried out with a peptide substrate [Val-Ser-Gln-Asn-(βnaphthyl)Ala-Pro-Ile-Val (SEQ ID NO:1)]. The inhibitor was first preincubated with the HIV-1 protease (wild type) enzyme in assay buffer (50 mM sodium acetate, pH 5.5, 100 mM NaCl, and 0.1% BSA) for 30 minutes at room temperature. Substrate was added to 400 micromolar in a total volume of 20 microliters containing 20 picomolar HIV-1 protease (final) and the reaction was incubated for 1 hour at 30° C. The reaction was quenched with the addition of formic acid and indinavir to 0.012% and 150 nM final concentrations, respectively. The product formation was determined after separation of product and substrate on a Zorbax Eclipse XDB-C18 column connected to an API 4000 mass spectrometer (Applied Biosystems) with multiple reaction monitoring (transitions were 644.5/428.9 and 615.4/422.2 (M1/M3) for product and indinavir respectively). The extent of inhibition of the reaction was determined from the peak area of the products. Analysis of the products, independently synthesized, provided quantitation standards and confirmation of the product composition.
row,SMILES,IC50
1,COC(=O)N[C@H](C(=O)Nc1ccccc1CC[C@@H]1CN[C@H](C)[C@@H](CSc2cc(N3CCN(C)CC3)ncn2)O1)C(c1ccccc1)c1ccccc1 [Example 39],420 nM
2,"COC(=O)N[C@H](C(=O)Nc1ccccc1CC[C@@H]1CN[C@H](C)[C@@H](CSc2cccc3ncccc23)O1)C(c1ccccc1)c1ccccc1 [Example 4, methyl [(2S)-1-{[2-(2-{(2R,5R,6S)-5-methyl-6-[(quinolin-5-ylsulfanyl)methyl]morpholin-2-yl}ethyl)phenyl]amino}-1-oxo-3,3-diphenylpropan-2-yl]carbamate]",10.6 nM
3,"COC(=O)N[C@H](C(=O)Nc1ccccc1CC[C@@H]1CN[C@H](C)[C@@H](CSc2nc3ncccc3[nH]2)O1)C(c1ccccc1)c1ccccc1 [Example 22, methyl N-[(1S)-1-benzhydryl-2-[[2-[2-[(2R,5R,6S)-6-(1H-imidazo[4,5-b]pyridin-2-ylsulfanylmethyl)-5-methyl-morpholin-2-yl]ethyl]phenyl]amino]-2-oxo-ethyl]carbamate]",44.4 nM
4,"COC(=O)N[C@H](C(=O)Nc1ccccc1CC[C@@H]1CN[C@H](C)[C@@H](CSc2nnc(Cn3nccc3C)o2)O1)C(c1ccccc1)c1ccccc1 [Example 6, methyl N-[(1S)-1-benzhydryl-2-[[2-[2-[(2R,5R,6S)-5-methyl-6-[[5-[(5-methylpyrazol-1-yl)methyl]-1,3,4-oxadiazol-2-yl]sulfanylmethyl]morpholin-2-yl]ethyl]phenyl]amino]-2-oxo-ethyl]carbamate]",5.12 nM
5,"COC(=O)N[C@H](C(=O)Nc1ccccc1CC[C@@H]1CN[C@H](C)[C@@H](CSc2ccncc2)O1)C(c1ccccc1)c1ccccc1 [Example 19, methyl N-[(1S)-1-benzhydryl-2-[[2-[2-[(2R,5R,6S)-5-methyl-6-(4-pyridylsulfanylmethyl)morpholin-2-yl]ethyl]phenyl]amino]-2-oxo-ethyl]carbamate]",41.4 nM
6,"COC(=O)N[C@H](C(=O)Nc1ccccc1CC[C@@H]1CN[C@H](C)[C@@H](CSc2ncccc2C(F)(F)F)O1)C(c1ccccc1)c1ccccc1 [Example 20, methyl N-[(1S)-1-benzhydryl-2-[[2-[2-[(2R,5R,6S)-5-methyl-6-[[3-(trifluoromethyl)-2-pyridyl]sulfanylmethyl]morpholin-2-yl]ethyl]phenyl]amino]-2-oxo-ethyl]carbamate]",43.3 nM
7,"C[C@H]1O[C@H](CCc2c(F)cccc2NC(=O)[C@@H](N)C(c2ccc(F)cc2)c2ccc(F)cc2)CN[C@@H]1COC(=O)NCc1ccc(F)cc1 [Example 48, 4-fluoro-N-(3-fluoro-2-{2-[(2R,5R,6R)-5-({[(4-fluorobenzyl)carbamoyl]oxy}methyl)-6-methylmorpholin-2-yl]ethyl}phenyl)-β-(4-fluorophenyl)-L-phenylalaninamide]",5.8 nM
8,"CCC(O)(c1cnc(SC[C@H]2O[C@H](CCc3ccccc3NC(=O)[C@@H](NC(=O)OC)C(c3ccccc3)c3ccccc3)CN[C@@H]2C)s1)C(F)(F)F (stereo partly drawn) [Example 15, methyl N-[(1S)-1-benzhydryl-2-[[2-[2-[(2R,5R,6S)-6-[[5-[1-hydroxy-1-(trifluoromethyl)propyl]thiazol-2-yl]sulfanylmethyl]-5-methyl-morpholin-2-yl]ethyl]phenyl]amino]-2-oxo-ethyl]carbamate]",17.8 nM
9,"N[C@H](C(=O)Nc1cccc(F)c1OC[C@@H]1CN[C@@H]2c3ccccc3C[C@@H]2O1)C(c1ccccc1)c1ccccc1 [Example 60, N-{3-fluoro-2-[(2S,4aR,9aS)-2,3,4,4a,9,9a-hexahydroindeno [2,1-b][1,4]oxazin-2-ylmethoxy]phenyl}-β-phenyl-L-phenylalaninamide]",610 nM
10,O=C(CC(c1ccc(F)cc1)c1ccc(F)cc1)Nc1cccc(F)c1CC[C@@H]1CN[C@H](CO)[C@@H](COC(=O)NCC(F)(F)F)O1 [Example 62],170 nM

# From patent US9834526B2 (MERCK SHARP & DOHME CORP., priority 2013, dated 2017)
